According to ChEMBL document CHEMBL1158093, “Isolation, structure elucidation, and biological evaluation of 15-amido-3-demethoxy-2alpha,3alpha-methylenedioxyerythroculine, a new alkaloid from Hyperbaena valida” (J Nat Prod, 2006):
The source made the active and inactive calls. The rule behind the calls is not given here.

Key:
[1] = target: T1, Neuronal acetylcholine receptor; alpha3/beta4 (Rattus norvegicus, UniProt P04757+P12392); assay: Activity at rat alpha3beta4 nicotinic receptor expressed in KXalpha-3-beta-4R2 cells assessed as nicotine-induced 86Rb+ efflux; type: cell-based
[2] = target: Neuronal acetylcholine receptor; alpha3/beta4 (Rattus norvegicus) (UniProt P04757+P12392); assay: Agonist activity at rat alpha3beta4 nicotinic receptor expressed in KXalpha-3-beta-4R2 cells assessed as nicotine-induced calcium fluorescence; type: functional, cell-based
[3] = target: T1, Neuronal acetylcholine receptor; alpha3/beta4; assay: Antagonist activity at rat alpha3beta4 nicotinic receptor expressed in KXalpha-3-beta-4R2 cells assessed as nicotine-induced calcium fluorescence; type: functional, cell-based

T1 sequence (P04757 whole entry): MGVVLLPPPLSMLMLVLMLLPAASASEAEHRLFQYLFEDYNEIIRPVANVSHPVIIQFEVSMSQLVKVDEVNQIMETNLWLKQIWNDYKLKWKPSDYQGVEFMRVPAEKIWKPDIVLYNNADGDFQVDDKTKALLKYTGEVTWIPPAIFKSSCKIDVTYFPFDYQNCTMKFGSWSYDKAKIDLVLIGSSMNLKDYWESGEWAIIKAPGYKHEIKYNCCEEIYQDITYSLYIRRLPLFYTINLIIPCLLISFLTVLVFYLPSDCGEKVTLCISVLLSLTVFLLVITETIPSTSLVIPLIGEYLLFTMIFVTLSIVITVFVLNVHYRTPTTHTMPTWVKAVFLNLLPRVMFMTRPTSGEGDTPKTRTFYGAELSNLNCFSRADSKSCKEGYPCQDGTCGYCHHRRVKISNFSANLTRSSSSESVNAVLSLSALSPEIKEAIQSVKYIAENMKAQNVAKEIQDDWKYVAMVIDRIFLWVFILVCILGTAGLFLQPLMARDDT
T1 sequence (P12392 whole entry): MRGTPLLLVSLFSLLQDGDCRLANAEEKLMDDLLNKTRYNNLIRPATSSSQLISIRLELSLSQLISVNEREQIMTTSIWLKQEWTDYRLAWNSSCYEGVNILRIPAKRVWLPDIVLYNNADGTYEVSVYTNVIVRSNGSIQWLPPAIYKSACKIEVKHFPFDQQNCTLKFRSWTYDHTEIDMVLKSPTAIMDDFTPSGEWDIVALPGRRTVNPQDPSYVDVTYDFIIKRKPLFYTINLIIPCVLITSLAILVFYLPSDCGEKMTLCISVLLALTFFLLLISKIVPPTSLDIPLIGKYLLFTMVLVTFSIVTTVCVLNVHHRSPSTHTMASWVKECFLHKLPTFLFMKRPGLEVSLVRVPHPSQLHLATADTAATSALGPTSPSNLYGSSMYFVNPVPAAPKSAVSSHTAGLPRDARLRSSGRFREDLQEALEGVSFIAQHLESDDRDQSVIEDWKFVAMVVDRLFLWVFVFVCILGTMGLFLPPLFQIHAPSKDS

SMILES	IC50 [1]	Activity [2]	IC50 [3]
CO[C@H]1CC=C2CCN3CCC4=C(CC(=O)OC4)[C@]23C1	100 µM	–	–
COc1cc2c(cc1C(N)=O)[C@]13C[C@H]4OCO[C@H]4C=C1CCN3CC2	–	inactive	94 µM
COC(=O)c1cc2c(cc1OC)CCN1CCC3=C[C@@H]4OCO[C@@H]4C[C@]321	–	inactive	77 µM
